Usually EC50 stands for the concentration at which the effect is half-maximal.

Molecules are shown by their SMILES.

The subject of the assay is glioblastoma brain cancer cell line LN-229. Put plainly: Cytotoxicity assay (CCK8 viability). It is filed as cell-based. The note with it: Homo sapiens, cytotoxicity against LN-229, 18 hours incubation, 1% FBS media. As to the method: Cytoxocity assay: Cells were seeded on a 96 well polystyrene plate in full serum media at a density of 75,000 cells per milliliter, 100 μL per well. Plates were incubated at 37° C. and 5% CO2 for 24 hours to allow cell attachment. Drug solutions were prepared in DMSO at 100× concentration and mixed 1:100 in 1% FBS media to yield the desired concentration. Drug-media mixtures were vortexed immediately prior to administration to cells. Full serum media was removed and replaced with drug-media mixtures and incubated for 18 hours. 10 μL of Cell Counting Kit 8 (CCK8, Dojindo# CK04-11) was added to each well to colormetrically assess viability. After 2-4 hours of incubation with the CCK8 dye, absorbance was read at 450 nm by a BioTek Synergy 2 plate reader.
The cytotoxicity of selected compounds against the glioblastoma brain cancer cell line LN-229 is depicted in Table 1.

`CCCCCCC(C)(C)c1cc2c(c(O)n1)[C@@H]1C[C@H](C)CC[C@@H]1C(C)(C)O2` [Compound 6b, (6aS,9R,10aR)-6,6,9-trimethyl-3-(2-methyloctan-2-yl)-6a,7,8,9,10,10a-hexahydro-6H-isochromeno[4,3-c]pyridin-1-ol]: the EC50 worked out at 2430 nM.

With `CCCCCCC(C)(C)c1cc2c(c(O)n1)[C@H]1C[C@@H](C)CC[C@H]1C(C)(C)O2` [Compound 6c, (6aR, 9S, 10aS)-6,6,9-trimethyl-3-(2-methyloctan-2-yl)-6a,7,8,9,10,10a-hexahydro-6H-isochromeno[4,3-c]pyridin-1-ol], the EC50 was 1830 nM.

Values taken from patent US8476439B2, “Pyridine classical cannabinoid compounds and related methods of use” (priority 2008, dated 2013).
